Data as given in PubChem BioAssay (NCI).
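GI50: concentration for 50% inhibition of growth. TGI denotes the concentration required for complete inhibition of growth.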

Key:
Assay in all cases: inhibition of tumour cell growth, NCI panel, 384-well format
TK-10 renal = system: TK-10 renal
786-0 renal = system: 786-0 renal
IGROV1 ovarian = system: IGROV1 ovarian
SW-620 colon = system: SW-620 colon
K-562 leukemia = system: K-562 leukemia
U251 glioblastoma = system: U251 glioblastoma
SF-268 CNS = system: SF-268 CNS
NCI/ADR-RES ovarian = system: NCI/ADR-RES ovarian
NCI-H322M lung = system: NCI-H322M lung
RPMI-8226 leukemia = system: RPMI-8226 leukemia
HCT-15 colon = system: HCT-15 colon
DU-145 prostate = system: DU-145 prostate
SK-MEL-5 melanoma = system: SK-MEL-5 melanoma
A549 NSCLC = system: A549 NSCLC
RXF 393 renal = system: RXF 393 renal
OVCAR-5 ovarian = system: OVCAR-5 ovarian
MALME-3M melanoma = system: MALME-3M melanoma
UO-31 renal = system: UO-31 renal
SK-MEL-28 melanoma = system: SK-MEL-28 melanoma
CAKI-1 renal = system: CAKI-1 renal
MCF7 breast = system: MCF7 breast
UACC-257 melanoma = system: UACC-257 melanoma
SNB-19 CNS = system: SNB-19 CNS
SK-OV-3 ovarian = system: SK-OV-3 ovarian
OVCAR-8 ovarian = system: OVCAR-8 ovarian
HT29 colon = system: HT29 colon
HCC-2998 colon = system: HCC-2998 colon
MDA-MB-468 breast = system: MDA-MB-468 breast
OVCAR-3 ovarian = system: OVCAR-3 ovarian
A498 renal = system: A498 renal
MDA-MB-231 breast = system: MDA-MB-231 breast
NCI-H522 lung = system: NCI-H522 lung
SNB-75 CNS = system: SNB-75 CNS
SN12C renal = system: SN12C renal
BT-549 breast = system: BT-549 breast
COLO 205 colon = system: COLO 205 colon
PC-3 prostate = system: PC-3 prostate
NCI-H226 lung = system: NCI-H226 lung
NCI-H23 lung = system: NCI-H23 lung
T-47D breast = system: T-47D breast
M14 melanoma = system: M14 melanoma
MDA-MB-435 melanoma = system: MDA-MB-435 melanoma
HOP-92 NSCLC = system: HOP-92 NSCLC
HS 578T breast = system: HS 578T breast
KM12 colon = system: KM12 colon
SF-295 CNS = system: SF-295 CNS
EKVX NSCLC = system: EKVX NSCLC
HCT-116 colon = system: HCT-116 colon
SF-539 CNS = system: SF-539 CNS
UACC-62 melanoma = system: UACC-62 melanoma
LOX IMVI melanoma = system: LOX IMVI melanoma
HOP-62 NSCLC = system: HOP-62 NSCLC
ACHN renal = system: ACHN renal
OVCAR-4 ovarian = system: OVCAR-4 ovarian
MOLT-4 leukemia = system: MOLT-4 leukemia

SMILES: Cc1c(NC(=O)OC[C@@H]2COCCN2)cn2ncnc(Nc3ccc4c(cnn4Cc4cccc(F)c4)c3)c12
- GI50 (TK-10 renal): 661 nM
- TGI (TK-10 renal): 3.48 µM
- GI50 ([…]-0 renal): 1420 nM
- TGI (786-0 renal): 2910 nM
- GI50 (IGROV1 ovarian): 93.5 nM
- TGI (IGROV1 ovarian): 4.96 µM
- GI50 (SW-620 colon): 3.8 µM
- TGI (SW-620 colon): 12 µM
- GI50 (K-562 leukemia): 1790 nM
- TGI (K-562 leukemia): 3.32 µM
- GI50 (U251 glioblastoma): 1910 nM
- TGI (U251 glioblastoma): 3.54 µM
- GI50 (SF-268 CNS): 943 nM
- TGI (SF-268 CNS): 3.78 µM
- GI50 (NCI/ADR-RES ovarian): 12.6 µM
- TGI (NCI/ADR-RES ovarian): 25.2 µM
- GI50 (NCI-H322M lung): 363 nM
- TGI (NCI-H322M lung): 11.1 µM
- GI50 (RPMI-8226 leukemia): 2290 nM
- TGI (RPMI-8226 leukemia): 4.19 µM
- GI50 (HCT-15 colon): 2190 nM
- TGI (HCT-15 colon): 5.47 µM
- GI50 (DU-145 prostate): 2440 nM
- TGI (DU-145 prostate): 13.6 µM
- GI50 (SK-MEL-5 melanoma): 1510 nM
- TGI (SK-MEL-5 melanoma): 2900 nM
- GI50 (A549 NSCLC): 2820 nM
- TGI (A549 NSCLC): 13.6 µM
- GI50 (RXF 393 renal): 1670 nM
- TGI (RXF 393 renal): 3.34 µM
- GI50 (OVCAR-5 ovarian): 3.37 µM
- TGI (OVCAR-5 ovarian): 16.1 µM
- GI50 (MALME-3M melanoma): 2230 nM
- TGI (MALME-3M melanoma): 4.77 µM
- GI50 (UO-31 renal): 1470 nM
- TGI (UO-31 renal): 3.73 µM
- GI50 (SK-MEL-28 melanoma): 2150 nM
- TGI (SK-MEL-28 melanoma): 4.05 µM
- GI50 (CAKI-1 renal): 1900 nM
- TGI (CAKI-1 renal): 14.3 µM
- GI50 (MCF7 breast): 3000 nM
- TGI (MCF7 breast): 10.4 µM
- GI50 (UACC-257 melanoma): 2030 nM
- TGI (UACC-257 melanoma): 3.98 µM
- GI50 (SNB-19 CNS): 3.72 µM
- TGI (SNB-19 CNS): 13.8 µM
- GI50 (SK-OV-3 ovarian): 1770 nM
- TGI (SK-OV-3 ovarian): 5.72 µM
- GI50 (OVCAR-8 ovarian): 4.46 µM
- TGI (OVCAR-8 ovarian): 16.2 µM
- GI50 (HT29 colon): 1810 nM
- TGI (HT29 colon): 3.47 µM
- GI50 (HCC-2998 colon): 1660 nM
- TGI (HCC-2998 colon): 3.61 µM
- GI50 (MDA-MB-468 breast): 22.2 nM
- TGI (MDA-MB-468 breast): 70.1 nM
- GI50 (OVCAR-3 ovarian): 2670 nM
- TGI (OVCAR-3 ovarian): 9.15 µM
- GI50 (A498 renal): 1400 nM
- TGI (A498 renal): 3.24 µM
- GI50 (MDA-MB-231 breast): 1920 nM
- TGI (MDA-MB-231 breast): 4.65 µM
- GI50 (NCI-H522 lung): 255 nM
- TGI (NCI-H522 lung): 3.82 µM
- GI50 (SNB-75 CNS): 2960 nM
- TGI (SNB-75 CNS): 9 µM
- GI50 (SN12C renal): 1960 nM
- TGI (SN12C renal): 14.4 µM
- GI50 (BT-549 breast): 2030 nM
- TGI (BT-549 breast): 4.36 µM
- GI50 (COLO 205 colon): 2960 nM
- TGI (COLO 205 colon): 7.54 µM
- GI50 (PC-3 prostate): 3000 nM
- TGI (PC-3 prostate): 7.88 µM
- GI50 (NCI-H226 lung): 5.08 µM
- TGI (NCI-H226 lung): 18.1 µM
- GI50 (NCI-H23 lung): 3.6 µM
- TGI (NCI-H23 lung): 12.4 µM
- GI50 (T-47D breast): 46.7 nM
- TGI (T-47D breast): 1060 nM
- GI50 (M14 melanoma): 2080 nM
- TGI (M14 melanoma): 4.29 µM
- GI50 (MDA-MB-435 melanoma): 4.66 µM
- TGI (MDA-MB-435 melanoma): 13.3 µM
- GI50 (HOP-92 NSCLC): 2460 nM
- TGI (HOP-92 NSCLC): 9.57 µM
- GI50 (HS 578T breast): 2330 nM
- TGI (HS 578T breast): 5.32 µM
- GI50 (KM12 colon): 3.74 µM
- TGI (KM12 colon): 13.5 µM
- GI50 (SF-295 CNS): 2280 nM
- TGI (SF-295 CNS): 4.89 µM
- GI50 (EKVX NSCLC): 1020 nM
- TGI (EKVX NSCLC): 5.16 µM
- GI50 (HCT-116 colon): 2350 nM
- TGI (HCT-116 colon): 4.88 µM
- GI50 (SF-539 CNS): 1950 nM
- TGI (SF-539 CNS): 3.86 µM
- GI50 (UACC-62 melanoma): 1910 nM
- TGI (UACC-62 melanoma): 3.56 µM
- GI50 (LOX IMVI melanoma): 1700 nM
- TGI (LOX IMVI melanoma): 3.2 µM
- GI50 (HOP-62 NSCLC): 2010 nM
- TGI (HOP-62 NSCLC): 9.3 µM
- GI50 (ACHN renal): 815 nM
- TGI (ACHN renal): 12.7 µM
- GI50 (OVCAR-4 ovarian): 3.75 µM
- TGI (OVCAR-4 ovarian): 12.4 µM
- GI50 (MOLT-4 leukemia): 1690 nM
- TGI (MOLT-4 leukemia): 3.35 µM
